How the values were obtained:
[1] = target: T1, Avi-KRAS G12V (1-169) GppNHp/RAF1 RBD-3xFLAG (52-151) (Homo sapiens, UniProt P01116, G12V); assay: Raf1-KRAS G12V-GppNHP disruption HTRF assay (Biological Example 1); type: binding; settings: KRAS G12V-GppNHp/RAF1 RBD HTRF
T1 construct: Avi-KRAS G12V (1-169)
Method in brief: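 Percent activity versus DMSO (100%) was derived from HTRF signal after KRAS–RAF1 RBD protein mix was incubated 1 h at room temperature with shaking and detection reagents were added for a further 1 h.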

GP2d cells (KRAS G12D) = assay: Cell-based pERK HTRF assay in GP2d cell (Biological Example 2); settings: GP2d (KRAS G12D) cells
Method in brief: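 GP2d (KRAS G12D) cells were plated in DMEM/10% FBS and treated the next day for 60 min with compounds. Dosing used 9-point half-log series starting at 1 μM or 100 nM in 0.25% DMSO. Lysates were read by HTRF pERK (d2/Eu cryptate antibodies) after 4–24 h at room temperature, with excitation at 320 nm and emission at 615 nm.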

[2] = target: T2, Avi-KRAS G12D (2-169) GTP/RAF1 RBD-3xFLAG (51-131) (Homo sapiens, UniProt P01116, G12D); assay: Raf1-KRAS G12D-GTP disruption HTRF assay (Biological Example 3); type: binding; settings: KRAS G12D, GTP-loaded
T2 construct: Avi-KRAS G12D (2-169)
Method in brief: (§1)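 An HTRF assay measured disruption of 50 nM Avi-KRAS (2-169)-GTP (WT, G12C, G12D or G12V) bound to RAF1 RBD-3xFLAG (51-131). Buffer was Tris pH 7.5 with 5 mM MgCl2 and 10% DMSO. Compounds (30–0.005 μM, 3-fold, 10 points) were incubated 1 h at room temperature, and activity is given as % of DMSO.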

[3] = target: T3, Avi-KRAS G12C (2-169) GTP/RAF1 RBD-3xFLAG (51-131) (Homo sapiens, UniProt P01116, G12C); assay: Raf1-KRAS G12C-GTP disruption HTRF assay (Biological Example 3); type: binding; settings: KRAS G12C, GTP-loaded
T3 construct: Avi-KRAS G12C (2-169)
Method in brief: as §1

[4] = target: T4, Avi-KRAS G12V (2-169) GTP/RAF1 RBD-3xFLAG (51-131) (Homo sapiens, UniProt P01116, G12V); assay: Raf1-KRAS G12V-GTP disruption HTRF assay (Biological Example 3); type: binding; settings: KRAS G12V, GTP-loaded
T4 construct: Avi-KRAS G12V (2-169)
Method in brief: as §1

[5] = target: T5, Avi-KRAS WT (2-169) GTP/RAF1 RBD-3xFLAG (51-131) (Homo sapiens, UniProt P01116); assay: Raf1-KRAS WT-GTP disruption HTRF assay (Biological Example 3); type: binding; settings: KRAS WT, GTP-loaded
T5 construct: Avi-KRAS WT (2-169)
Method in brief: as §1

T1 sequence (P01116 1-169 isoform P01116-2 G12V): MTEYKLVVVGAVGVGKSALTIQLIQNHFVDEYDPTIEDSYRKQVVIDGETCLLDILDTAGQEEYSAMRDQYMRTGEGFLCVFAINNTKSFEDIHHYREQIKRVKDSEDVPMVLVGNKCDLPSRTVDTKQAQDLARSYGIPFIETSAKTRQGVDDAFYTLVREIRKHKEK
T4 sequence (P01116 2-169 isoform P01116-2 G12V): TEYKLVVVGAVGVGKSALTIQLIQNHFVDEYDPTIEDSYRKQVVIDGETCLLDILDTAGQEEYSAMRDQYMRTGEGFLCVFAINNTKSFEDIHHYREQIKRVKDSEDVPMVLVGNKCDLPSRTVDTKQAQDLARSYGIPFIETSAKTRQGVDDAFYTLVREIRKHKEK
T3 sequence (P01116 2-169 isoform P01116-2 G12C): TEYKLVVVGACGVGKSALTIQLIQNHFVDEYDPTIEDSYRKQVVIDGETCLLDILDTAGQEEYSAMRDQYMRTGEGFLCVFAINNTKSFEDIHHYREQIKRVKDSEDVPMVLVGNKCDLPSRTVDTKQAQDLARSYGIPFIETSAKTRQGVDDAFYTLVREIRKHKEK
T2 sequence (P01116 2-169 isoform P01116-2 G12D): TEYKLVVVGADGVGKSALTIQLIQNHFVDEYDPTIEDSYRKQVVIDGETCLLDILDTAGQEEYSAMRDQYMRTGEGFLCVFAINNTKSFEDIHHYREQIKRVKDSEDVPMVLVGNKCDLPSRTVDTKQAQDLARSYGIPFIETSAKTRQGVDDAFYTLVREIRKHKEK
T5 sequence (P01116 2-169 isoform P01116-2): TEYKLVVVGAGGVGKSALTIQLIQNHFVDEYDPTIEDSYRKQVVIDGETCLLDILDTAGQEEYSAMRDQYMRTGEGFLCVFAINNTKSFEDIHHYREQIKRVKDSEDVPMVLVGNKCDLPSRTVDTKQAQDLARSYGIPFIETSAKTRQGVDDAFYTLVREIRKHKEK

SMILES	IC50 [1]	IC50 (GP2d cells (KRAS G12D); pERK HTRF)	IC50 (GP2d cells (KRAS G12D); GP2d)	IC50 (GP2d cells (KRAS G12D); GP2d, pERK HTRF)	IC50 [2]	IC50 [3]	IC50 [4]	IC50 [5]	IC50 (GP2d cells (KRAS G12D))
CCN(c1nc(OC[C@@]23CCCN2C[C@H](F)C3)nc2c(F)c(-c3ccc(F)c4sc(N)c(C#N)c34)c(C(F)(F)F)cc12)[C@H]1CCN(C(=O)C(C)C)C1 (atropisomer, axis not shown) [Compound 468]	> 10000 nM	100 to 1000 nM							
CCN(c1nc(OC[C@@]23CCCN2C[C@H](F)C3)nc2c(F)c(-c3ccc(F)c4sc(N)c(C#N)c34)c(C(F)(F)F)cc12)[C@H]1CCS(=O)(=O)C1 (atropisomer, axis not shown) [Compound 492]	100 to 1000 nM	< 100 nM							
CN(C)C(=O)[C@@H]1CC[C@@H](N(C)c2nc(OC[C@@]34CCCN3C[C@H](F)C4)nc3c(F)c(-c4ccc(F)c5sc(N)c(C#N)c45)c(C(F)(F)F)cc23)C1 (atropisomer, axis not shown) [Compound 512]	100 to 1000 nM		< 100 nM	< 100 nM	100 to 1000 nM	100 to 1000 nM	1000 to 10000 nM	100 to 1000 nM	
CCN(c1nc(OC[C@@]23CCCN2C[C@H](F)C3)nc2c(F)c(-c3ccc(F)c4sc(N)c(C#N)c34)c(C(F)(F)F)cc12)[C@H]1C[C@@H]2COC(=O)N2C1 (atropisomer, axis not shown) [Compound 519]	100 to 1000 nM		< 100 nM	< 100 nM	≤ 100 nM	100 to 1000 nM	100 to 1000 nM	100 to 1000 nM	
CCC(=O)N1CC[C@@H](N(CC)c2nc(OC[C@@]34CCCN3C[C@H](F)C4)nc3c(F)c(-c4ccc(F)c5sc(N)c(C#N)c45)c(C(F)(F)F)cc23)[C@H]1C (atropisomer, axis not shown) [Compound 523]	< 100 nM	< 100 nM	< 100 nM		≤ 100 nM	≤ 100 nM	≤ 100 nM	≤ 100 nM	
CCN(c1nc(OC[C@@]23CCCN2C[C@H](F)C3)nc2c(F)c(-c3ccc(F)c4sc(N)c(C#N)c34)c(C(F)(F)F)cc12)[C@@H]1CCN(C(=O)C2CC2)[C@@H]1C (atropisomer, axis not shown) [Compound 524]	< 100 nM	< 100 nM	< 100 nM		≤ 100 nM	100 to 1000 nM	≤ 100 nM	≤ 100 nM	
CCN(c1nc(OC[C@@]23CCCN2C[C@H](F)C3)nc2c(F)c(-c3ccc(F)c4sc(N)c(C#N)c34)c(C(F)(F)F)cc12)[C@@H]1C[C@@H](C)N(C(C)=O)C1 (atropisomer, axis not shown) [Compound 527]	100 to 1000 nM		< 100 nM	< 100 nM	100 to 1000 nM	100 to 1000 nM	100 to 1000 nM	100 to 1000 nM	
CCN(c1nc(OC[C@@]23CCCN2C[C@H](F)C3)nc2c(F)c(-c3ccc(F)c4sc(N)c(C#N)c34)c(C(F)(F)F)cc12)[C@@H]1C[C@H]2CCC(=O)N2C1 (atropisomer, axis not shown) [Compound 532]	100 to 1000 nM		< 100 nM	< 100 nM	100 to 1000 nM	100 to 1000 nM	100 to 1000 nM	100 to 1000 nM	
CCC(=O)N1C[C@H](N(CC)c2nc(OC[C@@]34CCCN3C[C@H](F)C4)nc3c(F)c(-c4ccc(F)c5sc(N)c(C#N)c45)c(C(F)(F)F)cc23)C[C@@H]1C (atropisomer, axis not shown) [Compound 533]	100 to 1000 nM		< 100 nM	< 100 nM	100 to 1000 nM	100 to 1000 nM	100 to 1000 nM	100 to 1000 nM	
CCN(c1nc(OC[C@@]23CCCN2C[C@H](F)C3)nc2c(F)c(-c3ccc(F)c4sc(N)c(C#N)c34)c(C(F)(F)F)cc12)[C@@H]1C[C@H](C)N(C(C)=O)C1 (atropisomer, axis not shown) [Compound 534]	100 to 1000 nM		< 100 nM	< 100 nM	100 to 1000 nM	100 to 1000 nM	100 to 1000 nM	100 to 1000 nM	
CCN(c1nc(OC[C@@]23CCCN2C[C@H](F)C3)nc2c(F)c(-c3ccc(F)c4sc(N)c(C#N)c34)c(C(F)(F)F)cc12)[C@H]1C[C@H](C)N(C(=O)COC)C1 (atropisomer, axis not shown) [Compound 538]	< 100 nM		< 100 nM	< 100 nM	≤ 100 nM	≤ 100 nM	≤ 100 nM	100 to 1000 nM	
CCN(c1nc(OC[C@@]23CCCN2C[C@H](F)C3)nc2c(F)c(-c3ccc(F)c4sc(N)c(C#N)c34)c(C(F)(F)F)cc12)[C@H]1C[C@H](C)N(C(=O)C2COC2)C1 (atropisomer, axis not shown) [Compound 539]	< 100 nM		< 100 nM	< 100 nM	100 to 1000 nM	100 to 1000 nM	100 to 1000 nM	100 to 1000 nM	
CCN(c1nc(OC[C@@]23CCCN2C[C@H](F)C3)nc2c(F)c(-c3ccc(F)c4sc(N)c(C#N)c34)c(C(F)(F)F)cc12)[C@H]1CCN(C(=O)N(C)C)C1 (atropisomer, axis not shown) [Compound 540, (3S)-3-[[7-(2-amino-3-cyano-7-fluoro-benzothiophen-4-yl)-8-fluoro-2-[[(2R,8S)-2-fluoro-1,2,3,5,6,7-hexahydropyrrolizin-8-yl]methoxy]-6-(trifluoromethyl)quinazolin-4-yl]-ethyl-amino]-N,N-dimethyl-pyrrolidine-1-carboxamide]			< 100 nM		≤ 100 nM	≤ 100 nM	≤ 100 nM	100 to 1000 nM	
CCN(c1nc(OC[C@@]23CCCN2C[C@H](F)C3)nc2c(F)c(-c3ccc(F)c4sc(N)c(C#N)c34)c(C(F)(F)F)cc12)[C@H]1CCN(C(=O)OC)C1 (atropisomer, axis not shown) [Compound 541, methyl(3S)-3-[[7-(2-amino-3-cyano-7-fluoro-benzothiophen-4-yl)-8-fluoro-2-[[(2R,8S)-2-fluoro-1,2,3,5,6,7-hexahydropyrrolizin-8-yl]methoxy]-6-(trifluoromethyl)quinazolin-4-yl]-ethyl-amino]pyrrolidine-1-carboxylate]	< 100 nM	< 100 nM			≤ 100 nM	≤ 100 nM	≤ 100 nM	100 to 1000 nM	< 100 nM
CCOC(=O)N1CC[C@H](N(CC)c2nc(OC[C@@]34CCCN3C[C@H](F)C4)nc3c(F)c(-c4ccc(F)c5sc(N)c(C#N)c45)c(C(F)(F)F)cc23)C1 [Compound 467]	< 100 nM			< 100 nM					
CCN(c1nc(OC[C@@]23CCCN2C[C@H](F)C3)nc2c(F)c(-c3ccc(F)c4sc(N)c(C#N)c34)c(C(F)(F)F)cc12)[C@H]1C[C@H](C)N(C(=O)C2CC2)C1 [Compound 470]	< 100 nM			< 100 nM					
Cc1cc2n(n1)CCN(c1nc(OCC34CCCN3CC(F)C4)nc3c(F)c(-c4ccc(F)c5sc(N)c(C#N)c45)c(C(F)(F)F)cc13)C2 (stereo not shown) [Compound 484]	1000 to 10000 nM			< 100 nM					
N#Cc1c(N)sc2c(F)ccc(-c3c(C(F)(F)F)cc4c(N5CCn6nc(N7CCOCC7)cc6C5)nc(OC[C@@]56CCCN5C[C@H](F)C6)nc4c3F)c12 [Compound 485]	1000 to 10000 nM			< 100 nM					

Source: patent US20260042764A1, “COMPOSITIONS AND METHODS FOR INHIBITION OF KRAS” (TheRas, Inc., priority 2022, published 2026)
